Experimental data published in patent publication US20240365781A1, “SYNERGISTICALLY EFFECTIVE HERBICIDE COMPOSITION COMPRISING PELARGONIC ACID AND FLAZASULFURON” (Belchim Crop Protection NV, priority 2017, published 2024).

Legend:
Test in all cases: post-emergence field trial under rows of apple trees, 150-200 L water/ha (Examples 10-12)
Type in all cases: in vivo
[1] = test system: Poa annua; conditions: Poa annua/78 d; 10880 g of active compound/ha
Protocol: (§1) Herbicidal activity was determined by performing a post-emergence test. […] The corresponding mixture was in the form of a spray solution. Besides, spray solutions of individual compositions comprising pelargonic acid or flazasulfuron were used.
(§2) The spray solution was applied on plants of unwanted vegetation present on fields where perennial crops were grown.
(§3) After 5 to 88 days after application of the spray solution, the degree of damage to the unwanted vegetation is rated in % of plants of unwanted vegetation that were killed. Tests were performed on test fields (field trials).

[2] = test system: Senecio vulgaris
Protocol: as §1, §2, §3

[3] = test system: Sonchus oleracea
Protocol: as §1, §2, §3

[4] = test system: Stellaria media
Protocol: as §1, §2, §3

[5] = test system: Taraxacum officinalis
Protocol: as §1, §2, §3

[6] = test system: Trifolium repens
Protocol: as §1, §2, §3

[7] = test system: Veronica persicae
Protocol: as §1, §2, §3

## CCCCCCCCC(=O)O [Pelargonic acid, nonanoic acid]
[1]
  herbicidal effect (%): 1%
[2]; Senecio vulgaris/6 d, 5440 g of active compound/ha
  herbicidal effect (%): 26%
[2]; Senecio vulgaris/6 d, 8160 g of active compound/ha
  herbicidal effect (%): 29%
[2]; Senecio vulgaris/6 d, 10880 g of active compound/ha
  herbicidal effect (%): 29%
[2]; Senecio vulgaris/28 d, 5440 g of active compound/ha
  herbicidal effect (%): 9%
[2]; Senecio vulgaris/28 d, 10880 g of active compound/ha
  herbicidal effect (%): 11%
[2]; Senecio vulgaris/58 d, 10880 g of active compound/ha
  herbicidal effect (%): 33%
[3]; Sonchus oleracea/6 d, 5440 g of active compound/ha
  herbicidal effect (%): 25%
[3]; Sonchus oleracea/6 d, 8160 g of active compound/ha
  herbicidal effect (%): 50%
[3]; Sonchus oleracea/6 d, 10880 g of active compound/ha
  herbicidal effect (%): 55%
[3]; Sonchus oleracea/16 d, 5440 g of active compound/ha
  herbicidal effect (%): 48%
[3]; Sonchus oleracea/16 d, 8160 g of active compound/ha
  herbicidal effect (%): 43%
[3]; Sonchus oleracea/16 d, 10880 g of active compound/ha
  herbicidal effect (%): 45%
[3]; Sonchus oleracea/30 d, 5440 g of active compound/ha
  herbicidal effect (%): 40%
[3]; Sonchus oleracea/30 d, 8160 g of active compound/ha
  herbicidal effect (%): 48%
[3]; Sonchus oleracea/30 d, 10880 g of active compound/ha
  herbicidal effect (%): 53%
[3]; Sonchus oleracea/57 d, 5440 g of active compound/ha
  herbicidal effect (%): 0%
[3]; Sonchus oleracea/57 d, 8160 g of active compound/ha
  herbicidal effect (%): 0%
[3]; Sonchus oleracea/57 d, 10880 g of active compound/ha
  herbicidal effect (%): 0%
[3]; Sonchus oleracea/78 d, 5440 g of active compound/ha
  herbicidal effect (%): 0%
[3]; Sonchus oleracea/78 d, 8160 g of active compound/ha
  herbicidal effect (%): 0%
[3]; Sonchus oleracea/78 d, 10880 g of active compound/ha
  herbicidal effect (%): 0%
[4]; Stellaria media/5 d, 5440 g of active compound/ha
  herbicidal effect (%): 5%
[4]; Stellaria media/5 d, 10880 g of active compound/ha
  herbicidal effect (%): 89%
[4]; Stellaria media/18 d, 5440 g of active compound/ha
  herbicidal effect (%): 0%
[4]; Stellaria media/18 d, 8160 g of active compound/ha
  herbicidal effect (%): 0%
[4]; Stellaria media/18 d, 10880 g of active compound/ha
  herbicidal effect (%): 0%
[5]; Taraxacum officinalis/5 d, 5440 g of active compound/ha
  herbicidal effect (%): 11%
[5]; Taraxacum officinalis/18 d, 5440 g of active compound/ha
  herbicidal effect (%): 0%
[5]; Taraxacum officinalis/18 d, 8160 g of active compound/ha
  herbicidal effect (%): 0%
[5]; Taraxacum officinalis/18 d, 10880 g of active compound/ha
  herbicidal effect (%): 9%
[5]; Taraxacum officinalis/32 d, 5440 g of active compound/ha
  herbicidal effect (%): 0%
[5]; Taraxacum officinalis/32 d, 8160 g of active compound/ha
  herbicidal effect (%): 0%
[5]; Taraxacum officinalis/32 d, 10880 g of active compound/ha
  herbicidal effect (%): 0%
[5]; Taraxacum officinalis/61 d, 5440 g of active compound/ha
  herbicidal effect (%): 0%
[5]; Taraxacum officinalis/61 d, 8160 g of active compound/ha
  herbicidal effect (%): 0%
[5]; Taraxacum officinalis/61 d, 10880 g of active compound/ha
  herbicidal effect (%): 0%
[5]; Taraxacum officinalis/88 d, 5440 g of active compound/ha
  herbicidal effect (%): 0%
[5]; Taraxacum officinalis/88 d, 8160 g of active compound/ha
  herbicidal effect (%): 0%
[5]; Taraxacum officinalis/88 d, 10880 g of active compound/ha
  herbicidal effect (%): 0%
[6]; Trifolium repens/7 d, 5440 g of active compound/ha
  herbicidal effect (%): 59%
[6]; Trifolium repens/7 d, 8160 g of active compound/ha
  herbicidal effect (%): 73%
[6]; Trifolium repens/7 d, 10880 g of active compound/ha
  herbicidal effect (%): 75%
[6]; Trifolium repens/16 d, 5440 g of active compound/ha
  herbicidal effect (%): 9%
[6]; Trifolium repens/16 d, 8160 g of active compound/ha
  herbicidal effect (%): 13%
[6]; Trifolium repens/16 d, 10880 g of active compound/ha
  herbicidal effect (%): 23%
[6]; Trifolium repens/26 d, 5440 g of active compound/ha
  herbicidal effect (%): 0%
[6]; Trifolium repens/26 d, 8160 g of active compound/ha
  herbicidal effect (%): 0%
[6]; Trifolium repens/26 d, 10880 g of active compound/ha
  herbicidal effect (%): 0%
[6]; Trifolium repens/59 d, 5440 g of active compound/ha
  herbicidal effect (%): 0%
[6]; Trifolium repens/59 d, 8160 g of active compound/ha
  herbicidal effect (%): 0%
[6]; Trifolium repens/59 d, 10880 g of active compound/ha
  herbicidal effect (%): 0%
[7]; Veronica persicae/7 d, 5440 g of active compound/ha
  herbicidal effect (%): 56%
[7]; Veronica persicae/7 d, 8160 g of active compound/ha
  herbicidal effect (%): 70%
[7]; Veronica persicae/7 d, 10880 g of active compound/ha
  herbicidal effect (%): 73%
[7]; Veronica persicae/16 d, 5440 g of active compound/ha
  herbicidal effect (%): 30%
[7]; Veronica persicae/16 d, 8160 g of active compound/ha
  herbicidal effect (%): 48%
[7]; Veronica persicae/16 d, 10880 g of active compound/ha
  herbicidal effect (%): 45%
[7]; Veronica persicae/26 d, 5440 g of active compound/ha
  herbicidal effect (%): 0%
[7]; Veronica persicae/26 d, 8160 g of active compound/ha
  herbicidal effect (%): 0%
[7]; Veronica persicae/26 d, 10880 g of active compound/ha
  herbicidal effect (%): 0%
[7]; Veronica persicae/59 d, 5440 g of active compound/ha
  herbicidal effect (%): 0%
[7]; Veronica persicae/59 d, 8160 g of active compound/ha
  herbicidal effect (%): 0%
[7]; Veronica persicae/59 d, 10880 g of active compound/ha
  herbicidal effect (%): 0%
